Assay results taken from article PMC10065799, “High-throughput profiling of sequence recognition by tyrosine kinases and SH2 domains using bacterial peptide display” (eLife, 2023).

How the values were obtained:
c-Src kinase domain = c-Src kinase domain (Homo sapiens, UniProt P12931); assay: pTyr-Var library bacterial peptide display kinase screen (enrichment scores); assay type: biochemical;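 for c-Src hit?: Hit requires p below 0.05 and at least twofold variant vs reference change plus filters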
Fyn kinase domain = assay: as above; assay type: biochemical, human;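 for Fyn hit?: Hit requires p below 0.05 and at least twofold variant vs reference change plus filters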
Hck kinase domain = assay: as above; assay type: biochemical, human
c-Abl kinase domain = molecular target: T1, c-Abl kinase domain (Mus musculus, UniProt P00520); assay: as above; assay type: biochemical
T1 sequence (P00520 242-493 limits assumed): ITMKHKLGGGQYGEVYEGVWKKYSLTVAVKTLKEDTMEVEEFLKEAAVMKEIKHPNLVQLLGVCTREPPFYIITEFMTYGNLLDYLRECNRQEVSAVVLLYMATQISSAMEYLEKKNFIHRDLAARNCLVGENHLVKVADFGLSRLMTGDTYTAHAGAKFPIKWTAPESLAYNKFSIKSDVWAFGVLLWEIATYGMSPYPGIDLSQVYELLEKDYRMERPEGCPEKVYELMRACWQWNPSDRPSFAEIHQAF

Jak2 = assay: as above; assay type: biochemical, human
AncSZ kinase domain = assay: as above; assay type: biochemical;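 for AncSZ hit?: Hit requires p below 0.05 and at least twofold variant vs reference change plus filters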
Fer kinase domain = assay: as above; assay type: biochemical, mouse
Fes = assay: as above; assay type: biochemical
FGFR1 kinase domain = assay: as above; assay type: biochemical, human
FGFR3 kinase domain = assay: as above; assay type: biochemical, human
EPHB1 kinase domain = assay: as above; assay type: biochemical, human
EPHB2 kinase domain = assay: as above; assay type: biochemical, human
MERTK kinase domain = assay: as above; assay type: biochemical, human
c-Src SH2 domain = c-Src SH2 domain (Homo sapiens, UniProt P12931); assay: pTyr-Var library SH2 domain screen with SH2-dynabeads (enrichment scores); settings: sheet c-Src
SHP2 C-SH2 domain = assay: as above
Grb2 SH2 domain = assay: as above
[1] = molecular target: mouse c-Abl kinase domain (residues 232-502) (mouse) (UniProt P00520)
[2] = mean of log2 of enrichment over R1-R4
[3] = pTyr-Var library, enrichment score, replicate 1
[4] = pTyr-Var library, enrichment score, replicate 3
[5] = pTyr-Var library, enrichment score, replicate 4
[6] = variant versus reference peptide
[7] = variant versus reference peptide, significant hit TRUE/FALSE
[8] = mean of log2(variant) minus mean of log2(reference)
[9] = mean of log2 enrichment of variant peptide, n = 5
[10] = mean of log2 enrichment of variant peptide, n = 4
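Throughout, for c-Abl hit?: Hit requires p below 0.05 and at least twofold variant vs reference change plus filters.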

Sequence of mouse c-Abl kinase domain (residues 232-502) (mouse) (P00520 232-502): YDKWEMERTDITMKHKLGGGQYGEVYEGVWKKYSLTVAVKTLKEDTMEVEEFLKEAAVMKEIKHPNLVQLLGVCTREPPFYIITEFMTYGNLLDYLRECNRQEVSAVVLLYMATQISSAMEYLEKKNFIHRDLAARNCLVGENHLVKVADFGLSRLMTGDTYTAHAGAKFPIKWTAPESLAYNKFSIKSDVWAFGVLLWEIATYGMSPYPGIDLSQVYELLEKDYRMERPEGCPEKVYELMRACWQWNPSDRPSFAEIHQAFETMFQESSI

ATGLIYIGSHD [AASDH_Y870_T865A]
c-Src mean of log2(enrichment) (c-Src kinase domain; [2]): -1.071 | c-Src enrich. R1 (c-Src kinase domain; [3]): 0.5345 | c-Src enrich. R3 (c-Src kinase domain; [4]): 0.3128 | c-Src enrich. R4 (c-Src kinase domain; [5]): 0.6339 | c-Src difference (mean log2 variant - mean log2 reference) (c-Src kinase domain; [6]): 0.2235 | c-Src hit? (c-Src kinase domain; [7]): FALSE | Fyn mean of log2(enrichment) (Fyn kinase domain; [2]): -1.279 | Fyn enrich. R1 (Fyn kinase domain; [3]): 0.5717 | Fyn enrich. R3 (Fyn kinase domain; [4]): 0.2668 | Fyn enrich. R4 (Fyn kinase domain; [5]): 0.4414 | Fyn difference (mean log2 variant - mean log2 reference) (Fyn kinase domain; [6]): 0.2007 | Fyn hit? (Fyn kinase domain; [7]): FALSE | Hck mean of log2(enrichment) (Hck kinase domain; mean of log2(variant) / mean of log2(reference), R1-R4): 0.4694 | Hck enrich. R1 (Hck kinase domain; [3]): 0.8875 | Hck enrich. R3 (Hck kinase domain; [4]): 0.3766 | Hck enrich. R4 (Hck kinase domain; [5]): 0.194 | Hck difference (variant - reference) (Hck kinase domain; [6]): 0.009668 | Hck hit? (Hck kinase domain; [7]): FALSE | c-Abl mean of log2(enrichment) (c-Abl kinase domain; [2]): -0.2804 | c-Abl enrich. R1 (c-Abl kinase domain; [3]): 0.635 | c-Abl enrich. R3 (c-Abl kinase domain; [4]): 0.7155 | c-Abl enrich. R4 (c-Abl kinase domain; [5]): 1.499 | c-Abl hit? (c-Abl kinase domain; [7]): FALSE | Jak2 mean of log2(enrichment) (Jak2; mean of log2 of enrichment over R1-R3): -0.3116 | Jak2 enrich. R1 (Jak2; [3]): 0.8629 | Jak2 enrich. R3 (Jak2; [4]): 0.7054 | Jak2 difference (mean log2 variant - mean log2 reference) (Jak2; [6]): 0.1735 | Jak2 hit? (Jak2; [7]): FALSE | AncSZ mean of log2(enrichment) (AncSZ kinase domain; mean of log2 of enrichment over R1-R5): -0.2868 | AncSZ enrich. R1 (AncSZ kinase domain; [3]): 0.8707 | AncSZ enrich. R3 (AncSZ kinase domain; [4]): 0.8843 | AncSZ enrich. R4 (AncSZ kinase domain; [5]): 0.9628 | AncSZ enrich. R5 (AncSZ kinase domain; pTyr-Var library, enrichment score, replicate 5): 0.6734 | AncSZ difference (mean log2 variant - mean log2 reference) (AncSZ kinase domain; [6]): 0.1813 | AncSZ hit? (AncSZ kinase domain; [7]): FALSE | Fer mean of log2(enrichment) (Fer kinase domain; [2]): -1.02 | Fer enrich. R1 (Fer kinase domain; [3]): 0.4993 | Fer enrich. R3 (Fer kinase domain; [4]): 0.7968 | Fer enrich. R4 (Fer kinase domain; [5]): 0.4647 | Fer difference (mean log2 variant - mean log2 reference) (Fer kinase domain; [6]): 0.2779 | Fer hit? (Fer kinase domain; [7]): FALSE | Fes mean of log2(enrichment) (Fes; mean of log2 of enrichment over R1-R6): 0.1901 | Fes enrichment (mean) (Fes; pTyr-Var library, enrichment score, mean of replicates R1-R6): 1.145 | Fes difference (mean log2 variant - mean log2 reference) (Fes; [6]): 0.6008 | difference (FGFR1 kinase domain; [8]): -0.06079 | mean of log2(variant) (FGFR1 kinase domain; [9]): -1.25 | difference (FGFR3 kinase domain; [8]): 0.03027 | mean of log2(variant) (FGFR3 kinase domain; [9]): -0.6189 | difference (EPHB1 kinase domain; [8]): 0.11 | mean of log2(variant) (EPHB1 kinase domain; [10]): -0.4876 | difference (EPHB2 kinase domain; [8]): 0.3789 | mean of log2(variant) (EPHB2 kinase domain; [10]): -0.4994 | difference (MERTK kinase domain; [8]): 0.7784 | mean of log2(variant) (MERTK kinase domain; [10]): -0.9082 | difference (c-Src SH2 domain; [8]): -0.1239 | mean of log2(variant) (c-Src SH2 domain; mean of log2 enrichment of variant peptide, R1-R3): -0.9155 | difference (SHP2 C-SH2 domain; SHP2-C SH2, mean of log2(variant) minus mean of log2(reference)): -0.2085 | mean of log2(variant) (SHP2 C-SH2 domain; SHP2-C SH2, mean of log2 enrichment of variant, R1-R3): -0.9356 | hit? (SHP2 C-SH2 domain; SHP2-C SH2, variant versus reference significant hit call): FALSE | difference (Grb2 SH2 domain; Grb2 SH2, mean of log2(variant) minus mean of log2(reference)): -0.4428 | mean of log2(variant) (Grb2 SH2 domain; Grb2 SH2, mean of log2 enrichment of variant, R1-R3): -0.4021 | hit? (Grb2 SH2 domain; Grb2 SH2, variant versus reference significant hit call): FALSE

Ac-GAPEVIYATPGAKKKG-NH2 [AblTide (2014) peptide Ac-…-NH2]
KM (μM) of phosphorylation, Michaelis-Menten analysis, ADP-Quest assay [1]: 35 µM
